Measured values taken from patent US20250325677A1, “STAT6 DEGRADERS” (Gilead Sciences, Inc., priority 2024, published 2025).

Columns and labels:
STAT6 [1] = biological target: T1, STAT6 (Homo sapiens (Human), UniProt P42226); assay: STAT6 degrader assay (HiBiT, HeLa LgBiT clone 4.14); format: cell-based; conditions: HeLa LgBiT clone 4.14, 4-24 h; geometric mean; given for compounds with >80% Emax; read-out: STAT6 degradation DC50
Summary of the method: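 DC50 (nM) comes from luminescence of non-degraded STAT6 read 0.5 h after Nano-GLO addition, following 4-24 h compound exposure at 37° C. Cells were HeLa clone 4.14 expressing LgBiT with a CRISPR HiBiT tag on endogenous STAT6; 50 μM terfenadine set full degradation.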
Target sequence in this assay (P42226 whole entry): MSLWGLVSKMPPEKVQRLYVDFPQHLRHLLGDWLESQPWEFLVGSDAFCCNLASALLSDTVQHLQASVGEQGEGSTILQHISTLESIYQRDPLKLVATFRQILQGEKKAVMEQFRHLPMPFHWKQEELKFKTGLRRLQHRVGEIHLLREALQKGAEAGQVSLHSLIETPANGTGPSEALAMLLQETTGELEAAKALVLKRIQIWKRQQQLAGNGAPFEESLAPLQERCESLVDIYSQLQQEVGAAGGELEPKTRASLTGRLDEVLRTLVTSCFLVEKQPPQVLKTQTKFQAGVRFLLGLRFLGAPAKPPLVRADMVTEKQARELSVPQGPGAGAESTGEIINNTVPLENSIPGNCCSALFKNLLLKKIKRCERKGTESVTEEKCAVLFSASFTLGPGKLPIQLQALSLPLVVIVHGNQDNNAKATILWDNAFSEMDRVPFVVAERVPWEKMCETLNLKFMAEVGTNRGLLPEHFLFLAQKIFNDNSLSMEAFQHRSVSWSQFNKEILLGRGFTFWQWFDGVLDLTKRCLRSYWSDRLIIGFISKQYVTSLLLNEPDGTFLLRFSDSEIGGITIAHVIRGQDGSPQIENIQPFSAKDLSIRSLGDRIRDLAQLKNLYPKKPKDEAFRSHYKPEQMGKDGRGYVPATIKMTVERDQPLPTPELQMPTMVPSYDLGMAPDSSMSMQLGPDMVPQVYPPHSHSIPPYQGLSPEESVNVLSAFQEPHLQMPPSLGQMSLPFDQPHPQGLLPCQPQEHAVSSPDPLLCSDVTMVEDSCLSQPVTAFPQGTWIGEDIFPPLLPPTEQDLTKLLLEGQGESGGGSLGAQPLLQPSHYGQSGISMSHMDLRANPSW

STAT6 [2] = biological target: T1, STAT6; assay: Surface plasmon resonance assay; format: binding; conditions: truncated human STAT6 aa122-658, 25° C.; read-out: STAT6 SPR Kd
Experimental: Surface Plasmon Resonance Assay
SPR was used to confirm and quantify binding of compounds to human STAT6. Biacore instruments from the 8K-series (Cytiva) were used, and measurements were performed at 25° C. Human STAT6 (truncated, aa122-658, with N-terminal His-tag, expressed in insect cells) was immobilized in the active flow cells on a CM5 chip using amine-coupling (default settings) at 10 μg/ml in 10 mM acetate buffer pH 5.5, at a contact time of 120-420 sec. and a flow rate of 10 μl/min. Reference flow cells were deactivated using blank immobilization. PBS-P+(Cytiva) supplemented with 2% DMSO was used as running buffer, and solvent correction was applied. Compounds were tested by multi-cycle kinetics injections using a contact time of 60 sec., dissociation time of up to 300 sec., and a flow rate of 30 μl/min.
Solvent-corrected, reference-subtracted and blank-corrected data was processed and binding isotherms were fitted according to a single report point from each sensorgram (Standard: Late binding (5 sec. before injection end); alternative: Earlier report point according to binding profile). Data fitting was done both with unfixed Rmax and with Rmax fixed to the theoretical value* assuming 1:1 binding to allow processing of data from both weak and strong binders as well as to evaluate binding stoichiometry.
Positive controls were run at the beginning, during, and at the end of the screen to evaluate surface activity. Generally surface activity was only affected to a minor degree, and no corrections were applied. • Equation for calculation of the theoretical Rmax (Theoretical Rmax=(MW Analyte/MW Ligand)×immobilization level).
The sensorgrams for Examples 3e5, 3t4, and 3p1 are shown in FIG. 1 (where RU is plotted vs. time in seconds; dotted lines/points were excluded from the analysis due to effects from non-specific binding)).
Target sequence in this assay (P42226 122-658): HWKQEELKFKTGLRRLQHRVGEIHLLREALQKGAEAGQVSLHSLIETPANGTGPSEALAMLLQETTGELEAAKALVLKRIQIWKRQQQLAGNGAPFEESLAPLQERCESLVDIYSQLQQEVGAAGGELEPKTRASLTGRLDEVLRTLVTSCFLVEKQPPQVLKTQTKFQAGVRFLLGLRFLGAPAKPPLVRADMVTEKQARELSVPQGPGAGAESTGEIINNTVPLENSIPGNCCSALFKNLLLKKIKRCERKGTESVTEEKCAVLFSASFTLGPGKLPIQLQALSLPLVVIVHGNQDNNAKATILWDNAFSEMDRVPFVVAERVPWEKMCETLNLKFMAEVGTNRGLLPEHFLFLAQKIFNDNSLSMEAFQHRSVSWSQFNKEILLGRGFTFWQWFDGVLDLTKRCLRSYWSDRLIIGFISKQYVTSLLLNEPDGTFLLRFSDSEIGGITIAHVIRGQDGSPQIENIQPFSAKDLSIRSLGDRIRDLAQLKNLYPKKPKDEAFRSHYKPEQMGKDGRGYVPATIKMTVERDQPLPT

eotaxin-3 release = assay: Human whole blood eotaxin-3 assay (IL-4 stimulated); format: cell-based; conditions: human whole blood, IL-4 0.4 nM, 48 hours; geometric mean; given for compounds with >80% Emax; read-out: Eotaxin-3 EC50
Summary of the method: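 Human whole blood was preincubated with compound for 120 min at 37 °C, then stimulated with recombinant human IL-4 (E. coli) at 0.4 nM final for 48 h. Inhibition of eotaxin-3 release gave EC50 values.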

Compound	DC50 (STAT6 [1])	Kd (STAT6 [2])	EC50 (eotaxin-3 release)
Cn1c(CN2CCC(c3ccc(-c4nnc5ccc(N6CCC(CN7CCN(Cc8ccc9c(c8)n(C)c(=O)n9C8CCC(=O)NC8=O)CC7)CC6)nn45)cc3)CC2)cc2c(-c3ccc(N)nc3)ccnc21 (stereo not drawn) [Example 3t4, 3-(5-((4-((1-(3-(4-(1-((4-(6-aminopyridin-3-yl)-1-methyl-1H-pyrrolo[2,3-b]pyridin-2-yl)methyl)-piperidin-4-yl)phenyl)-[1,2,4]triazolo[4,3-b]pyridazin-6-yl)piperidin-4-yl)methyl)piperazin-1-yl)methyl)-3-methyl-2-oxo-2,3-dihydro-1H-benzo[d]imidazol-1-yl)piperidine-2,6-dione]	0.1 nM	37.8 nM	
C[C@H]1CN(Cc2ccc3c(c2)n(CC2CC2)c(=O)n3C2CCC(=O)NC2=O)CCN1CC1CCN(C(=O)c2ccc(C3CCN([C@@H](C)c4cc5c(-c6ccc(N)nc6)ccnc5n4C)CC3)cc2)CC1 (stereo partly drawn) [Example 3e54, 3-(5-(((S)-4-((1-(4-(1-((S)-1-(4-(6-aminopyridin-3-yl)-1-methyl-1H-pyrrolo[2,3-b]pyridin-2-yl)ethyl)piperidin-4-yl)benzoyl)piperidin-4-yl)methyl)-3-methylpiperazin-1-yl)methyl)-3-(cyclo-propylmethyl)-2-oxo-2,3-dihydro-1H-benzo[d]imidazol-1-yl)piperidine-2,6-dione]	0.7 nM		3.6 nM
CNc1ccc(-c2ccnc3c2cc([C@H](C)N2CC=C(c4c(C)cc(C(=O)N5CCC(CN6CCN(Cc7cc8c(cc7F)N(C7CCC(=O)NC7=O)C(=O)C8(C)C)C[C@@H]6C)CC5)cc4F)CC2)n3C)cn1 (stereo partly drawn) [Example 3h33, 3-(6-fluoro-5-(((S)-4-((1-(3-fluoro-5-methyl-4-(1-((S)-1-(1-methyl-4-(6-(methylamino)pyridin-3-yl)-1H-pyrrolo[2,3-b]pyridin-2-yl)ethyl)-1,2,3,6-tetrahydropyridin-4-yl)benzoyl)piperidin-4-yl)methyl)-3-methylpiperazin-1-yl)methyl)-3,3-dimethyl-2-oxoindolin-1-yl)piperidine-2,6-dione]	36.7 nM		40.4 nM
C[C@H]1CN(Cc2ccc3c(c2)C2(CCC2)C(=O)N3C2CCC(=O)NC2=O)CCN1CC1CCN(C(=O)c2ccc(C3CCN([C@@H](C)c4cc5c(-c6ccc(N)nc6)ccnc5n4C)CC3)cc2)CC1 (stereo partly drawn) [Example 3h48, 3-(5′-(((S)-4-((1-(4-(1-((S)-1-(4-(6-aminopyridin-3-yl)-1-methyl-1H-pyrrolo[2,3-b]pyridin-2-yl)ethyl)piperidin-4-yl)benzoyl)piperidin-4-yl)methyl)-3-methylpiperazin-1-yl)methyl)-2′-oxospiro-[cyclobutane-1,3′-indolin]-1′-yl)piperidine-2,6-dione]	3 nM		13.2 nM
Cn1c(CN2CCC(c3ccc(C(=O)N4CCC(CN5CCN(Cc6ccc7c(c6)n(C6CC6)c(=O)n7C6CCC(=O)NC6=O)CC5)CC4)cc3)CC2)cc2c(-c3ccc(N)nc3)ccnc21 (stereo not drawn) [Example 3e5, 3-(5-((4-((1-(4-(1-((4-(6-aminopyridin-3-yl)-1-methyl-1H-pyrrolo[2,3-b]pyridin-2-yl)methyl)piperidin-4-yl)benzoyl)piperidin-4-yl)methyl)piperazin-1-yl)methyl)-3-cyclopropyl-2-oxo-2,3-dihydro-1H-benzo[d]imidazol-1-yl)piperidine-2,6-dione]	5.4 nM	104 nM	
C[C@H]1CN(Cc2ccc3c(c2)C(C)(C)C(=O)N3[C@H]2CCC(=O)NC2=O)CCN1CC1CCN(C(=O)c2ccc(C3CCN([C@@H](C)c4cc5c(-c6ccc(N)nc6)ccnc5n4C)CC3)cc2)CC1 [Example 3h31, (S)-3-(5-(((S)-4-((1-(4-(1-((S)-1-(4-(6-aminopyridin-3-yl)-1-methyl-1H-pyrrolo[2,3-b]pyridin-2-yl)ethyl)piperidin-4-yl)benzoyl)piperidin-4-yl)methyl)-3-methylpiperazin-1-yl)methyl)-3,3-dimethyl-2-oxoindolin-1-yl)piperidine-2,6-dione]	2.5 nM		8 nM

The remaining lines, values ahead:

DC50 (STAT6 [1])	Kd (STAT6 [2])	EC50 (eotaxin-3 release)	Compound
0.3 nM		1.4 nM	C[C@H]1CN(Cc2ccc3c(c2)n(C)c(=O)n3[C@@H]2CCC(=O)NC2=O)CCN1CC1CCN(C(=O)c2ccc(C3CCN([C@@H](C)c4cc5c(-c6ccc(N)nc6)ccnc5n4C)CC3)cc2)CC1 (single isomer, unassigned) [Example 3e49]
0.1 nM	11.4 nM	1 nM	CN(C(=O)c1ccc(C2CCN(Cc3cc4c(-c5ccc(N)nc5)ccnc4n3C)CC2)cc1)c1ccc(C2CCN(Cc3ccc4c(c3)n(C)c(=O)n4C3CCC(=O)NC3=O)CC2)cc1 (stereo not drawn) [Example 3p1, 4-(1-((4-(6-aminopyridin-3-yl)-1-methyl-1H-pyrrolo[2,3-b]pyridin-2-yl)methyl)piperidin-4-yl)-N-(4-(1-((1-(2,6-dioxopiperidin-3-yl)-3-methyl-2-oxo-2,3-dihydro-1H-benzo[d]imidazol-5-yl)methyl)-piperidin-4-yl)phenyl)-N-methylbenzamide]
2 nM		6 nM	CC[C@H]1CN(Cc2ccc3c(c2)n(C2CC2)c(=O)n3[C@@H]2CCC(=O)NC2=O)CCN1CC1CCN(C(=O)c2ccc(C3CCN([C@@H](C)c4cc5c(-c6ccc(N)nc6)ccnc5n4C)CC3)cc2)CC1 (single isomer, unassigned) [Example 3e64]
0.3 nM		0.8 nM	C[C@H]1CN(Cc2ccc3c(c2)n(C)c(=O)n3[C@H]2CCC(=O)NC2=O)CCN1CC1CCN(C(=O)c2ccc(C3CCN([C@@H](C)c4cc5c(-c6ccc(N)nc6)ccnc5n4C)CC3)cc2)CC1 (single isomer, unassigned) [Example 3e46]
